# Assay results as given in patent US20230181597A1, “METAL COMPLEXES OF NOCARDAMINE AND THEIR USE IN PHARMACEUTICAL COMPOSITIONS” (priority 2014, published 2023).
# Legend:
# [1] = test system: croton oil-induced irritant contact dermatitis (ICD) in mice ears; assay: Croton oil-induced irritant contact dermatitis (ICD) model, ear swelling; type: in vivo, Balb/c female mice
# [2] = test system: Bombyx mori (silkworm) ovary-derived cultured cell line cells; settings: reported in the literature; cited from earlier work
# [3] = cited from earlier work
# [4] = test system: S. aureus; assay: Bacterial growth curves (OD, 96-well plate, 24 h); type: cell-based, Staphylococcus aureus
# Protocol: (§1) The anti-bacterial effect of zinc-nocardamine was assessed on the following types of pathogenic bacteria: E. coli (Gram-negative), P. aeruginosa (Gram-negative) and S. aureus (Gram-positive) (isolated in Hadassah-Ein Karem Hospital). More specifically, the experiment was performed as following: Each bacterial strain was grown overnight at 37° C., under aeration of 200 rpm, in the appropriate medium (EPEC (E. coli)) and P. aeruginosa in LB broth, S. aureus in BHI broth. Both media were purchased from BD (NJ, USA). Series of three-fold consecutive dilutions were performed in a 96-well plate, and bacteria were then added to the wells at a final OD600 of 0.01. The experiments with all three strains were performed in duplicate. […] Then the plate was incubated in a plate reader for 24 h, and the kinetics of OD measurements were recorded every 20 minutes by Eon plate reader (BioTek, VE, USA). […]
# (§2) The anti-bacterial effect of zinc-nocardamine was assessed on the following types of pathogenic bacteria: E. coli (Gram-negative), P. aeruginosa (Gram-negative) and S. aureus (Gram-positive) (isolated in Hadassah-Ein Karem Hospital). […] The plate was then incubated in a plate reader for 24 h, and the kinetics of OD measurements were recorded, every 20 minutes. […]
# [5] = test system: IL-13; assay: IL-13 level in ear tissue of ICD mice (ELISA); type: in vivo, Balb/c female mice; settings: 0.5% ointment at t=3 h, measured at t=6 h (FIG. 7)
# Protocol: (§3) The samples were homogenized, and protein concentration was measured by Bradford procedure. The concentration of cytokines was determined by ELISA method, using commercially available kits according to the Manufacturer's protocols (RayBiotech, GA, USA).
# The assumed anti-inflammatory activity of the zinc-nocardamine complex was tested by measuring the concentrations of various anti-inflammatory cytokines, specifically, IL-4, IL-10 and IL-13, in ear tissue of mice. The concentrations of these cytokines were measured and their pattern of change along the experiment was compared for each: at baseline t=0 (no exposure), at t=3 h after exposure to croton oil, at t=6 h after exposure to croton oil, and at 6 h after exposure to croton oil where these ears had been treated with the zinc-nocardamine complex at t=3 h after the exposure to the croton oil. […] The concentration of the cytokines was determined by ELISA method, using commercially available ELISA kits, according to the Manufacturer protocol (RayBiotech, GA, USA; Diaclone, Besançon, France).
# [6] = test system: E. coli (EPEC); assay: Bacterial growth curves (OD, 96-well plate, 24 h); type: cell-based, Escherichia coli; settings: 1.7 mg/ml (FIG. 8A)
# Protocol: as §1, §2
# [7] = test system: IL-17; assay: IL-17 level in ear tissue of ICD mice (ELISA); type: in vivo, Balb/c female mice; settings: t=6 h after croton oil, 0.5% ointment (FIG. 6D)
# Protocol: as §3
# (§4) In order to study the underlying mechanism of the zinc-nocardamine complex, its assumed anti-inflammatory activity was tested by measuring the concentrations of various pro-inflammatory cytokines, in the ears, along the experimental protocol, specifically, IL-1α, IL-6, IL-17 and TNF-α. The concentration of these cytokines were measured in ear tissue that had been exposed to croton oil (at t=0) and was left untreated to t=6 h. The concentration was compared to the concentrations at t=6 h, in ears which were exposed at t=0, and treated with the complex at t=3 h.
# (§5) The effect of ICD-induced inflammatory process on the concentration of IL-1α, IL-6, TNF-α and IL-17 within the ear tissue is shown in FIG. 6A-6D. […] The concentration of the cytokines was determined by ELISA method, using commercially available kits, according to the Manufacturer protocol (RayBiotech, GA, USA)
# [8] = test system: TNF-α; assay: TNF-α level in ear tissue of ICD mice (ELISA); type: in vivo, Balb/c female mice; settings: t=6 h after croton oil, 0.5% ointment (FIG. 6C)
# Protocol: as §3, §4, §5
# [9] = test system: S. aureus; assay: Bactericidal activity (bacterial viability) on Petri dishes; type: cell-based, Staphylococcus aureus; settings: 5 mg/ml (FIG. 9C)
# Protocol: (§6) The concentrations of zinc-nocardamine, in four quadrants (1-4) of a Petri dish, were set as follows: 1-0 mg/ml; 2-5 mg/ml; 3-1.7 mg/ml; 4-0.5 mg/ml.
# (§7) The anti-bacterial effect of zinc-nocardamine was assessed on the following types of pathogenic bacteria: E. coli (Gram-negative), P. aeruginosa (Gram-negative) and S. aureus (Gram-positive) (isolated in Hadassah-Ein Karem Hospital). More specifically, the experiment was performed as following: Each bacterial strain was grown overnight at 37° C., under aeration of 200 rpm, in the appropriate medium (EPEC (E. coli)) and P. aeruginosa in LB broth, S. aureus in BHI broth. Both media were purchased from BD (NJ, USA). Series of three-fold consecutive dilutions were performed in a 96-well plate, and bacteria were then added to the wells at a final OD600 of 0.01. The experiments with all three strains were performed in duplicate. Zinc-nocardamine 10 mg/ml aqueous solution was prepared in advance; prior to the experiment it was diluted in the appropriate media in a ratio of 1:2, to obtain a stock concentration of 5 mg/ml. This stock was further diluted to 1.7, 0.5, 0.18, 0.06, 0.02, 0.002, 0.0007, and 0.0002 mg/ml and added to appropriate wells. Then the plate was incubated in a plate reader for 24 h, and the kinetics of OD measurements were recorded every 20 minutes by Eon plate reader (BioTek, VE, USA). […]
# [10] = test system: IL-6; assay: IL-6 level in ear tissue of ICD mice (ELISA); type: in vivo, Balb/c female mice; settings: t=6 h after croton oil, 0.5% ointment (FIG. 6B)
# Protocol: as §3, §4, §5
# [11] = test system: E. coli; assay: Bactericidal activity (bacterial viability) on Petri dishes; type: cell-based, Escherichia coli; settings: 5 mg/ml (FIG. 9A)
# Protocol: as §6, §7
# [12] = test system: P. aeruginosa; assay: as above; type: cell-based, Pseudomonas aeruginosa; settings: 5 mg/ml (FIG. 9B)
# Protocol: as §6, §7
# [13] = test system: P. aeruginosa; assay: Bacterial growth curves (OD, 96-well plate, 24 h); type: cell-based, Pseudomonas aeruginosa; settings: 1.7 mg/ml (FIG. 8B)
# Protocol: as §1, §2
# [14] = test system: IL-1α; assay: IL-1α level in ear tissue of ICD mice (ELISA); type: in vivo, Balb/c female mice; settings: t=6 h after croton oil, 0.5% ointment (FIG. 6A)
# Protocol: as §3, §4, §5
compound,measurement,setting,value
O=C1CCC(=O)N(O)CCCCCNC(=O)CCC(=O)N(O)CCCCCNC(=O)CCC(=O)N(O)CCCCCN1 [nocardamine],recovery from ICD versus untreated and zinc-nocardamine groups,[1]; 0.5% w/w ointment applied 3 h after croton oil (FIG. 2B),"recovered better than the untreated ones, their recovery was much slower than the recovery observed in mice that received zinc-nocardamine complex"
same,change of cell morphology,[2],change the morphology of insect Bombyx mori (silkworm) ovary-derived cultured cell line cells into spindle-like configuration
same,water solubility (description),[3],soluble in water with heating
CC(=O)N(O)CCCCCNC(=O)CCC(=O)N(O)CCCCCNC(=O)CCC(=O)N(O)CCCCCN [desferrioxamine B],water solubility,[3],about 50 mg/ml
zinc-nocardamine complex,growth inhibition of S. aureus,[4]; 0.5 mg/ml (FIG. 8C),growth inhibition was observed
same,growth inhibition of S. aureus,[4]; 1.7 mg/ml (FIG. 8C),growth inhibition was observed
same,optimal concentration in Vaseline-based ointment,"[1]; dose-response 0.1, 0.2, 0.5%, applied 3 h after irritant (FIG. 3)",0.5%
same,IL-13 level in ear tissue,[5],restoring the IL-13 level back to its baseline level
same,growth inhibition of E. coli,[6],growth inhibition was observed
same,concentration of IL-17 in ear tissue,[7],reduced the concentration of the cytokines to nearly the basal level
same,concentration of TNF-α in ear tissue,[8],reduced the concentration of the cytokines to nearly the basal level
same,bactericidal activity on S. aureus,[9],bactericidal activity was obtained
same,concentration of IL-6 in ear tissue,[10],reduced the concentration of the cytokines to nearly the basal level
same,bactericidal activity on E. coli,[11],bactericidal activity was obtained
same,bactericidal activity on P. aeruginosa,[12],bactericidal activity was obtained
same,growth inhibition of P. aeruginosa,[13],mild inhibition
same,concentration of IL-1α in ear tissue,[14],reduced the concentration of the cytokines to nearly the basal level
